Assay results: patent US12011436B2, “Use of NOX inhibitors for treatment of cancer” (CALLIDITAS THERAPEUTICS SUISSE SA, priority 2017, dated 2024)

System: 4T1 cancer cells mixed with BALB/C breast CAFs
Test: 4T1 breast cancer cells co-injected with CAFs into the mammary fat pad of mice, NOX4 inhibitor treatment
Format: in vivo, mouse
Details: 4T1+CAF tumours
Method: Fourteen (14) days after randomization and if the antitumor activity of NOX4/1 compounds alone or in combination is considered sufficient, tumors from 5 satellite mice per group are collected, weighed and the tumor is cut in 2 fragments. One fragment is cut into slices 4 mm thick and fixed in 4% neutral buffered formalin for 24 to 48 h, and then embedded in paraffin (Histosec®, Merck, Darmstadt, Germany). One fragment is embedded in tissue Freezing Medium (Microm Microtech, France), snap-frozen in isopentane cooled over liquid nitrogen and stored at […] until processing. Immunohistochemical stains for CD3, CD4 and CD8 are performed on paraffin-embedded tissue sections using standard techniques (Biodoxis, France). The number of CD3, CD4 and CD8 immunopositive cells per field are counted. When 4T1 cancer cells (0.5×105) are used, those are injected in PBS s.c into the upper mammary fat pad of female mice aged 8-10 weeks. Cells are either injected on their own, or mixed with 2.5×105 BALB/C breast CAFs isolated from transgenic BALBneuT spontaneous stromal-rich breast tumours. […] GKT137831 was reconstituted in 1.2% Methyl Cellulose (Sigma) with 0.1% Polysorbate (Sigma) and administered by oral gavage 5×/week at 40 mg/kg. Control mice received vehicle by oral gavage. For longer term dosing, 15 initial doses were given as stated, but reduced to 3×/week for 3 weeks at 50 mg/kg, then 2×/week for 3 weeks at 60 mg/kg. The anti PD-1 antibody (Bioxcell; RMP1-14) was given via […]) injection. 300 μg of the antibody or the IgG2a isotype control (Bioxcell) were given when tumours were palpable every other day, totaling 3 doses. For the data presented under FIG. 1, tumours were measured every 2-3 days by electronic skin caliper from longest width and length. Tumour volume was calculated using the formula 4/3πXr3, where the radius (r) was calculated from tumour width and length measurement to provide an average diameter value. Mice were randomized into groups based on tumour volume so that no statistical difference occurred between mean tumour volumes between groups before treatments began. […]

## CN(C)c1cccc(-c2c3c(=O)n(-c4ccccc4Cl)[nH]c3cc(=O)n2C)c1 [GKT, 2-(2-chlorophenyl)-4-[3-(dimethylamino)phenyl]-5-methyl-1H-pyrazolo [4,3-c]pyridine-3,6(2H,5H)-dione]
FIG. 1B
  SMA-positive CAF in tumours (immunochemistry): significantly reduces
FIG. 1C
  CD8+ T-cell location in tumour (immunochemistry): relocation of CD8+ T-cells from the tumour edge into the centre of the tumour
Day 15, after 8 days of treatment, oral gavage 40 mg/kg 5x/week, FIG. 1A
  tumour volume vs vehicle alone: significantly smaller
